Columns and labels:
Type in all cases: in vivo
[1] = tested on: C57 mice; test: Reversal of THC-induced hypolocomotion in mice; details: 30 min pre-test, THC 3 mg/kg ip 10 min pre-test
Description: Reversal of THC-induced hypolocomotion in mice: Six C57 mice (Charles River, Wilmington, Mass.) were administered Δ9-tetrahydrocannabinol (THC) 3 mg/kg ip, 10 min pre-test. […] In this apparatus, four qualitatively different measures of locomotor activity are automatically scored. […] The magnitude of the effect is similar to that elicited by rimonabant given at 3 mg/kg po, and given 30 min pre-test.

[2] = Single ascending oral dose pharmacokinetics in humans; details: human plasma, single oral dose 1-200 mg
Description: Human subjects were assigned to six different dosage groups of ANEB-001. Groups assigned to receive dosages of 1 mg, 5 mg, 25 mg, 100 mg, or 200 mg had six subjects each, and the 150 mg dosage group had four subjects. ANEB-001 was administered orally to subjects in each group, and the plasma concentration of ANEB-001 in each subject was measured as a function of time after dosing (FIG. 2).

[3] = tested on: rat; test: Repeated dose (28 day) toxicity study in rat; details: 28 day repeated dose
Description: (§1) Repeated dose (28 day) toxicity studies were conducted using ANEB-001 in two species, rat and primate, selected on the basis of acceptable bioavailability and comparison of metabolite profiles with those in human liver microsomes.

[4] = tested on: cynomolgus monkey; test: Repeat dose (28 day) toxicity study in cynomolgus monkey; details: 28 day repeat dose, 160 mg/kg/day
Description: as §1

For `Cc1c(C(=O)NN2CCCCC2)nn(-c2ccc(Cl)cc2Cl)c1-c1ccc(Cl)cc1` [rimonabant, reference compound], which “magnitude of the effect on THC-induced hypolocomotion (total active time), compared with ANEB-001” value ([1]; 3 mg/kg po) is on record?
Its value is “similar”.

With `CC(C)(C)NC(=O)N1CC(O[C@H](c2ccc(Cl)cc2)c2ccccc2C(F)(F)F)C1` [ANEB-001, 3-[(R)-2-(trifluoromethyl)-4′-chlorobenzhydryloxy]-N-(tert-butyl)azetidine-1-carboxamide] as the molecule, how does the Tmax [2] read?
The Tmax was 1 to 1.6 h.

What about the half-life ([2]; read-out: terminal elimination half-life) of the same molecule?
Its half-life is at most 456 h.

What about the “action of THC on the total active time parameter of locomotor measures” value ([1]; 30 mg/kg orally, 15 min in locomotor activity cages, FIG. 1) of the same molecule?
The value was “significantly reversed”.

And the “no observed adverse effect level” value [3]?
Its value is 75 mg/kg/day.

And the hepatic findings ([3]; 75 mg/kg/day)?
Its hepatic findings is “hepatic changes consistent with an adaptive response”.

What about the “adverse effects at the highest dose tested” value ([3]; highest dose 75 mg/kg/day) of the same molecule?
The value was “No adverse effects were observed”.

What about the “adverse effects at the highest dose level studied” value [4] of the same molecule?
The value was “no adverse effects were observed”.

Source: patent US11141404B1, “Formulations and methods for treating acute cannabinoid overdose” (Anebulo Pharmaceuticals, Inc., priority 2020, dated 2021)
